Laboratory results from patent US6875422B2, “Oral treatment/care agent” (priority 2000, dated 2005).

Conditions: used alone
Procedure: Here, a complete cure was determined by comparing the configuration and properties (hardness and color, in clinical practice) of the periodontium, mobility of the teeth, depth of pockets, hemorrhaging, pus discharge, effusion, bacterial flora within the pocket and the like, against those of a normal person (excepting any dramatic periodontial regeneration such as dramatic bone growth relative to the normal person through this medication alone).

For `C[C@@H]1[C@H](O)[C@@H](C)/C=C/C=C/C=C/C=C/C=C/C=C/C=C/[C@H](O[C@@H]2O[C@H](C)[C@@H](O)[C@H](N)[C@@H]2O)C[C@@H]2O[C@](O)(C[C@@H](O)C[C@@H](O)[C@H](O)CC[C@@H](O)C[C@@H](O)CC(=O)O[C@H]1C)C[C@H](O)[C@H]2C(=O)O` [amphotericin, amphotericin B], the “occurrences on use alone” value was “annual-term occurrences”.
